According to PubChem BioAssay (NCI):
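GI50 = concentration required for 50% inhibition of growth. Definition used: TGI = concentration required for complete inhibition of growth.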

Legend:
Experiment in all cases: NCI tumour cell line growth inhibition, 384-well format
786-0 renal = test system: 786-0 renal
A498 renal = test system: A498 renal
CCRF-CEM leukemia = test system: CCRF-CEM leukemia
M14 melanoma = test system: M14 melanoma
NCI-H522 lung = test system: NCI-H522 lung
PC-3 prostate = test system: PC-3 prostate
RPMI-8226 leukemia = test system: RPMI-8226 leukemia
RXF 393 renal = test system: RXF 393 renal
SF-539 CNS = test system: SF-539 CNS
SK-MEL-5 melanoma = test system: SK-MEL-5 melanoma
SN12C renal = test system: SN12C renal
SNB-19 CNS = test system: SNB-19 CNS
UACC-257 melanoma = test system: UACC-257 melanoma

Question: For `CC#CC(=O)N1CC[C@@H](n2c(=O)n(-c3ccc(Oc4ccccc4)cc3)c3c(N)ncnc32)C1`, which GI50 (786-0 renal) is on record?
Answer: 23 µM

Question: And the TGI (786-0 renal)?
Answer: 66.1 µM

Question: What about the GI50 (A498 renal) of the same compound?
Answer: 21.7 µM

Question: What about the TGI (A498 renal) of the same compound?
Answer: > 74.2 µM

Question: What about the GI50 (CCRF-CEM leukemia) of the same compound?
Answer: 11.4 µM

Question: And the TGI (CCRF-CEM leukemia)?
Answer: 23.7 µM

Question: What about the GI50 (M14 melanoma) of the same compound?
Answer: 22.7 µM

Question: And the TGI (M14 melanoma)?
Answer: 50.1 µM

Question: And the GI50 (NCI-H522 lung)?
Answer: 5.88 µM

Question: And the TGI (NCI-H522 lung)?
Answer: 27.9 µM

Question: What about the GI50 (PC-3 prostate) of the same compound?
Answer: 35.1 µM

Question: And the TGI (PC-3 prostate)?
Answer: > 100 µM

Question: What about the GI50 (RPMI-8226 leukemia) of the same compound?
Answer: 7.89 µM

Question: What about the TGI (RPMI-8226 leukemia) of the same compound?
Answer: 23 µM

Question: And the GI50 (RXF 393 renal)?
Answer: 13.4 µM

Question: And the TGI (RXF 393 renal)?
Answer: 32.2 µM

Question: And the GI50 (SF-539 CNS)?
Answer: 21.6 µM

Question: And the TGI (SF-539 CNS)?
Answer: 53.6 µM

Question: And the GI50 (SK-MEL-5 melanoma)?
Answer: 17.7 µM

Question: And the TGI (SK-MEL-5 melanoma)?
Answer: 47 µM

Question: And the GI50 (SN12C renal)?
Answer: 20.2 µM

Question: What about the TGI (SN12C renal) of the same compound?
Answer: > 90.9 µM

Question: And the GI50 (SNB-19 CNS)?
Answer: 23.3 µM

Question: What about the TGI (SNB-19 CNS) of the same compound?
Answer: > 64.3 µM

Question: And the GI50 (UACC-257 melanoma)?
Answer: 19.7 µM

Question: And the TGI (UACC-257 melanoma)?
Answer: 67.2 µM
